# Data as given in patent publication US20060240037A1, “Methods and compositions for the treatment and prevention of degenerative joint disorders” (priority 2003, published 2006).
# Where a name gives a salt, the structure may show the parent alone.
# Tested on: lubricin
# Type: cell-based
# Conditions: lubricin expression; primary human synovial fibroblasts; cells lysed after 48-72 hours; each supplement in 6 wells
# Experimental: To identify substances having the ability to lubricate synovial joints, we first screened a library of substances for the ability to induce expression and secretion of endogenous lubricin in cultured synovial fibroblasts. A library of nutritional supplements containing 175 natural compounds was made using a natural compound collection. Each supplement was dissolved in water to an approximate concentration of 10 mM. 96-well daughter plates were made and plates were stored at −20° C.
# Human synovial fibroblasts were plated the evening of the first day of the assay and grown overnight. In the morning of day 2, a supplement solution was added to each well of the 96-well plate. Each supplement was tested in 6 different wells to provide enough separate measurements to allow a statistical analysis of the results of the assay. After 48-72 hours, cells were lysed using a non-ionic detergent and supernatants containing cellular extracts were collected. Each supernatant was assayed for lubricin expression using any of the two methods described below.
# We have developed two methods to measure the expression of lubricin, both of which are based on a sandwich assay. In the first sandwich assay, concanavilin A (a lectin) is used to capture lubricin while peanut agglutinin (a lectin) is used to detect proteins secreted by synovial fibroblasts. In contrast, the second assay relies on a rabbit polyclonal antibody for both the capture and detection of lubricin secreted by fibroblasts. In both assays, purified lubricin was used as a calibrator.
# A substance that raised the level of measured lubricin in a significant manner when analyzed by t-test was considered a potentially efficacious substance useful for the present invention. All significant results were repeated in two additional experiments. […] In this regard, the 16 compounds that increased lubricin in the lectin-based assay were the same 16 compounds that increased lubricin levels in the antibody-based assay. […] Compounds that increase lubricin expression in synovial fibroblasts are indicated in Table 1 and the level of increase in lubricin expression is shown in Table 2 and FIG. 2.
# Substances from the nutritional supplement library were screened for their ability to stimulate lubricin expression in primary human synovial fibroblasts. Cells were cultured in the presence or absence of each substance and lubricin expression was measured using the two detection assays discussed below.
# In both assays, the cellular content of synovial cells was extracted as follows. Following the removal of culture media, cells were washed twice with D-PBS. Cells were first incubated in 500 μL of 1% Triton in D-PBS for five minutes and then mechanically disrupted using a pipette to ensure that all cells detach from the plates. The Triton solution containing the cells was transferred to an eppendorf and stored on ice. Samples were sonicated for three seconds and centrifuged for five minutes. The supernatant containing the cellular extracts was transferred to a fresh tube and tested for lubricin expression.
row,Compound,Percent stimulation relative to untreated control Adjusted for background
1,"CSCC[C@H](N)C(=O)O [Compound G66, L-Methionine]",234%
2,"CCCCCCCCCCCCCCCCCCCCCCCCCCCCO [Compound G-5, Octacosanol]",307%
3,"O=c1c(O)c(-c2ccc(O)c(O)c2)oc2cc(O)cc(O)c12 [Compound G-15, Quercetin]",118%
4,"N[C@@H](CS)C(=O)O [Compound G-22, L-Cysteine]",363%
5,"Cc1ncc(C[n+]2csc(CCO)c2C)c(N)n1 [Compound G-27, Thiamin HCl]",267%
6,"CC(C)(CO)[C@@H](O)C(=O)NCCC(=O)O [Compound G-35, Pantothenic Acid]",154%
7,"C[C@]12CCC(=O)C=C1CC[C@@H]1[C@@H]2CC[C@]2(C)C(=O)CC[C@@H]12 [Compound G-57, Androstenedione]",219%
8,Bromelain [Compound G126],75%
